Here are results for 91 compounds from PubChem BioAssay AID2823 (Broad Institute, 2010).

pIC50: −log10 of the molar value. Calls of active or inactive are those of the source. How the calls were made is not given here. Some results are limits rather than exact numbers.

In this test the target is RanGTP-importin-beta complex (human Ran / KPNB1). As to the kind of experiment: Ran–importin-beta interaction inhibitors, confirmation, biochemical, FRET, CFP/YFP, cell-free homogeneous (AID 2823). To be noted: CFP-Ran/YFP-importin-beta FRET ratio.
Consider `Cc1c(CC(=O)NCC(=O)N[C@H](Cc2ccccc2)C(=O)O)c(=O)oc2cc(O)ccc12`, for which the negative-log IC50 (pIC50) was 4.34.
On to `CN=C(Nc1cc(C)nn1CCC#N)c1ccccc1`, for which the IC50 is > 50 µM (inactive).
As for `CC1(C)CC(=O)C/C(=N\NC(=O)C2CC23CCC3)C1` (stereo unspecified), the IC50 was > 50 µM (inactive).
With `O=C(Nc1nc2ccc(S(=O)(=O)N3CCCCC3)cc2s1)c1cccnc1`, the IC50 is > 50 µM (inactive).
Take `N#Cc1ccc(/C=C(\C(=O)C(=O)O)c2ccc3ccccc3n2)cc1`: the negative logarithm of the IC50 (pIC50) is 4.92.
As to `COc1ccccc1NC(=O)CN1CCN(CC(=O)Nc2ccc(C)c(F)c2)CC1`, the IC50 is > 50 µM (inactive).
Consider `COC(=O)C1=CN(Cc2ccc(OC)c(OC)c2)C=C(C(=O)OC)C1c1ccccc1F`, for which the pIC50 was 5.01.
For the compound `Cc1nc2[nH]c(=O)c3c(n2n1)NC1=C(C(=O)CC(C)(C)C1)C3c1ccc(F)cc1` (stereo unspecified), the pIC50 is 5.56.
As to `COc1cccc(NC(=O)CSc2ncc(S(=O)(=O)c3ccccc3)c(=O)[nH]2)c1`, the IC50 is > 50 µM (inactive).
On the same count and under the same terms, with `Cn1c(=O)cc(OCCCC(=O)NCc2ccccn2)c2ccccc21` the figure was > 50 µM (inactive).
With `COC(=O)C1=CN(Cc2ccc(OC)c(OC)c2)C=C(C(=O)OC)C1c1cccc(O)c1`, the negative-log IC50 (pIC50) is 4.84.
As to `CN(C)c1oc(-c2cccs2)nc1C#N`, the IC50 was > 50 µM (inactive).
For the compound `CCOC(=O)c1c(N2C(=O)Nc3ccccc3N2O)sc2c1CCCC2`, the IC50 is > 50 µM (inactive).
As for `COCCNC(=S)N1CCCN(c2nc3cc(C)ccc3cc2C#N)CC1`, the pIC50 was 4.53.
As for `Oc1ccc(/C=N/Nc2ccc3ccccc3c2)c(O)c1`, the IC50 is > 50 µM (inactive).
`O=C(c1ccco1)c1cc2c(ccc3ccccc32)oc1=O`: the negative-log IC50 (pIC50) is 4.60.
`Cc1sc2c(c1C)C(=O)NC(c1ccccc1F)N2` (stereo unspecified): the IC50 is > 50 µM (inactive).
On the same count and under the same terms, then `C/C(N)=C(/C#N)C(=O)COc1ncnc2ccccc12`, with > 50 µM (inactive).
On the same count and under the same terms, with `CCOC(=O)c1c(NC(=O)CN2CCCc3ccccc32)sc(C(C)=O)c1C` the figure was > 50 µM (inactive).
In the case of `CCN(CC)c1ccc(/C=N/NC(=O)c2c(Cl)cnn2C)c(O)c1`, the pIC50 is 5.21.
Same read-out and setting: with `OCCNc1c2ccccc2nc2c(F)c(F)c(F)c(F)c12` the figure was 4.68.
Regarding `C/C(=C\C(=O)C(F)(F)F)Nc1ccc(C(F)(F)F)cc1`, the IC50 was > 50 µM (inactive).
Still for that read-out and setting: then `CCOC(=O)C1CCN(c2cc(=O)n(C3CCCCC3)c(=O)[nH]2)CC1`, with > 50 µM (inactive).
For `CCn1nc(NC(=O)c2ccncc2)c2cc3ccc(C)cc3nc21`, the negative-log IC50 (pIC50) was 4.33.
Turning to `O=C(c1ccc(F)cc1)c1cc2ccc(O)cc2oc1=O`, the negative-log IC50 (pIC50) was 4.94.
Turning to `COc1ccc(N=Cc2cc(Cc3ccccc3Cl)cc([N+](=O)[O-])c2O)cc1OC`, the IC50 is > 50 µM (inactive).
For the compound `O=C1CC(/C=C/c2ccco2)=Nc2ccccc2N1`, the IC50 is > 50 µM (inactive).
Same read-out and setting: with `CCN1CCc2nc(NC(=O)c3cc(F)c(F)cc3Cl)sc2C1` the figure was > 50 µM (inactive); with `O=C(Nc1cnc2ccccc2c1)c1cccc(-n2cnnn2)c1`, > 50 µM (inactive).
On to `COC(=O)Nc1ccc(NC(C)=O)cc1`, for which the IC50 is > 50 µM (inactive).
Same read-out and setting: with `CN(CCOc1ccccc1)CC(=O)Nc1ccc(Cl)cc1[N+](=O)[O-]` the figure was > 50 µM (inactive).
The same measure, in the same setting: then `CC1(C(=O)O)C=CCN1C(=O)c1ccccc1` (stereo unspecified), with > 50 µM (inactive); and `O=c1cc(N2CCN(Cc3ccccc3)CC2)[nH]c(=O)n1-c1ccc(Br)cc1`, with > 50 µM (inactive).
Still for that read-out and setting: with `O=[N+]([O-])c1cccc(-c2n[nH]c(=S)n2-c2ccc(Br)cc2)c1` the figure was > 50 µM (inactive).
Take `COc1ccccc1C1CC(c2ccc(Cl)cc2)Nc2nc(N)nn21` (stereo unspecified): the IC50 is > 50 µM (inactive).
On the same count and under the same terms, then `CCC(C)OC(=O)C[N+](C)(C)CCOC1CC2CCC1(C)C2(C)C` (stereo unspecified), with > 50 µM (inactive); and `CCN(CCO)C(=S)Nc1cc(C(=O)OC)ccc1C(=O)OC`, with > 50 µM (inactive); and `CCOC(=O)CNc1ncc([N+](=O)[O-])cc1C#N`, with > 50 µM (inactive).
Still for that read-out and setting: then `CCn1c(=O)cc(N2CCC3(CC2)OCCO3)[nH]c1=O`, with > 50 µM (inactive); and `NC(=O)c1sc2nccc(Nc3ccccc3)c2c1N`, with > 50 µM (inactive); and `CC1(C)CC(=O)C=C(Nc2ccc(S(N)(=O)=O)cc2)C1`, with > 50 µM (inactive).
`CCCOc1ccc(C2C(C(=O)OC)=CN(CCOC)C=C2C(=O)OC)cc1`: the pIC50 was 4.91.
`Cn1c(N/N=C/c2cc3ccccc3nc2Cl)nc2ccccc21`: the IC50 is > 120 µM (inactive).
On to `CC(C)CCN(CCC(C)C)CC(O)Cn1c2ccccc2c(=O)c2ccccc21` (stereo unspecified), for which the pIC50 was 5.17.
`CCc1ccc(C(=O)c2cc3ccc(O)cc3oc2=O)cc1`: the negative-log IC50 (pIC50) is 4.93.
`CCCCOc1ccc(OCCSc2nc3ccccc3n2CC(=O)O)cc1`: the IC50 was > 50 µM (inactive).
Same read-out and setting: then `O=C(CN1C2CCCC1CC(NC(=O)c1ccco1)C2)Nc1ccccc1C(F)(F)F` (stereo unspecified), with > 50 µM (inactive).
`COC(=O)CCC(=O)OC1(C)C(=O)C=C2C=C(C3CC3)N(Cc3ccc(OC)cc3)C=C2C1=O` (stereo unspecified): the negative-log IC50 (pIC50) was 4.57.
On the same count and under the same terms, then `CN(C)c1nc(-c2ccccc2)cc(C(F)(F)F)c1C#N`, with 4.97.
`CC12OC1C1(O)CCCC1=CC2=O` (stereo unspecified): the IC50 was > 50 µM (inactive).
On to `CCCSc1nnc(-c2c[nH]c3ccccc23)n1CC`, for which the IC50 is > 50 µM (inactive).
On the same count and under the same terms, then `CCOC(=O)/C(=N\Nc1ccc(C(C)=O)cc1)c1csc(Nc2ccccc2)n1`, with > 50 µM (inactive).
Regarding `Cc1c(CC(=O)N2CCN(C(=O)C3COc4ccccc4O3)CC2)c(=O)oc2c(C)c(O)ccc12` (stereo unspecified), the negative logarithm of the IC50 (pIC50) is 4.68.
For `COC(=O)c1cc(C(=O)OC)[nH]n1`, the IC50 was > 50 µM (inactive).
Take `Cc1cccc(NS(=O)(=O)c2ccc(C(=O)N3CCCCCC3)cc2)c1C`: the IC50 was > 50 µM (inactive).
As to `Cc1ccc(O)c(Nc2c3ccccc3nc3ccccc23)c1`, the pIC50 is 4.31.
On to `O=C(NCc1ccccc1C(F)(F)F)C1CC(c2ccc(C(F)(F)F)cc2)=NO1` (stereo unspecified), for which the IC50 is > 50 µM (inactive).
On the same count and under the same terms, with `CC1=Nc2ccccc2/C1=C\c1sc(Nc2ccc(C)cc2)nc1O` the figure was > 50 µM (inactive); with `CC1(C)CCC(=O)C=C1Nc1ccc(F)c(Cl)c1`, > 50 µM (inactive); with `O=C(Oc1c(Br)cc(C(=S)N2CCOCC2)cc1Br)c1ccc(Cl)cc1`, > 50 µM (inactive).
On the same count and under the same terms, then `COc1ccc(NC(=O)c2ccc3snnc3c2)cc1`, with > 50 µM (inactive).
In the case of `CCc1cc(=O)oc2c(CNCc3ccc(OC)cc3OC)c(O)c(Cl)cc12`, the pIC50 was 4.84.
With `c1ccc(Nc2nc3ccccc3n3nnnc23)cc1`, the negative-log IC50 (pIC50) is 4.56.
On to `N=c1c(S(=O)(=O)c2ccc(Cl)cc2)cc2c(=O)n3ccccc3nc2n1Cc1cccnc1`, for which the IC50 is > 50 µM (inactive).
The same measure, in the same setting: with `CCOC(=O)c1c(NC(=O)c2cccc(N3C(=O)CCC3=O)c2)sc2c1CCN(CC)C2` the figure was > 50 µM (inactive); with `C/C(=N\NC(=S)NCc1ccccc1)c1cccc(Br)c1`, > 50 µM (inactive).
Consider `COCCn1c(N)c(C(=O)OCc2ccccc2)c2nc3ccccc3nc21`, for which the negative-log IC50 (pIC50) was 4.33.
As to `CCCc1n(CC(O)COCc2ccccc2)c2ccccc2[n+]1C` (stereo unspecified), the IC50 is > 50 µM (inactive).
On to `CC1Cc2cc(/C(O)=C3/C(=O)C(=O)N(Cc4ccncc4)C3c3ccc(N(C)C)cc3)ccc2O1` (stereo unspecified), for which the IC50 is > 50 µM (inactive).
The same measure, in the same setting: then `CC1=NC(Nc2nc(C)c3ccccc3n2)=NC(C)(C)C1`, with > 50 µM (inactive); and `Cc1ccc2[nH]c(=O)c(C(c3nnnn3Cc3ccccc3)N3CCc4ccccc43)cc2c1` (stereo unspecified), with > 50 µM (inactive).
Take `COc1ccc(CCNC(=O)c2cc3c(=O)n4ccccc4nc3n(C3CCCCC3)c2=N)cc1OC`: the pIC50 was 4.63.
Consider `O=[N+]([O-])c1cc(CN2CCCC2)ccc1Sc1ccc(Cl)cc1`, for which the IC50 is > 50 µM (inactive).
The same measure, in the same setting: then `Cc1ccc(Cn2ccc(NC(=O)c3noc4c3CCc3ccccc3-4)n2)cc1`, with > 50 µM (inactive); and `O=C(NNc1c2ccccc2nc2ccccc12)C12CC3CC(CC(C3)C1)C2`, with > 50 µM (inactive).
Still for that read-out and setting: with `CC(C)(C)CN1CCC(n2nccc2NC(=O)c2ccccc2Cl)CC1` the figure was > 50 µM (inactive); with `CCN1CCC2(CC1)C(C#N)=C(N)Oc1c2sc2nc(C)cc(C)c12`, > 50 µM (inactive); with `CCN(Cc1ccccc1)C(=O)CN1C(=O)NC(CC)(c2ccc(F)cc2)C1=O` (stereo unspecified), > 50 µM (inactive).
For `NC(=S)Cc1nc(-c2ccc(Cl)cc2)cs1`, the IC50 was > 50 µM (inactive).
Consider `COc1cc([C@@H]2[C@H]3CN(C)CC=C3C(C#N)=C(N)C2(C#N)C#N)cc2c1OCO2`, for which the negative-log IC50 (pIC50) was 4.68.
Turning to `COc1ccc(NC(=O)COC(C)=O)cc1Cl`, the IC50 is > 50 µM (inactive).
Consider `COc1cc(C(=O)Oc2c(CN3CCOCC3)cc(Cl)c3cccnc23)cc(OC)c1OC`, for which the IC50 is > 50 µM (inactive).
The same measure, in the same setting: with `CCOC(=O)c1sc(N/N=C/c2cc(Br)c(O)c(OC)c2)nc1C` the figure was > 50 µM (inactive).
As to `CCOCCCNC(=S)NCCNc1nc2c(C)cccc2cc1C#N`, the negative logarithm of the IC50 (pIC50) was 4.44.
As for `C=CCn1c(SCC(=O)N2CCCCC2)nnc1-c1ccncc1`, the IC50 was > 50 µM (inactive).
Still for that read-out and setting: with `O=C(c1cc2c(=O)n3ccccc3nc2s1)N1CCN(Cc2ccccc2)CC1` the figure was > 50 µM (inactive); with `CCCn1cnc2cc(NCc3ccc(Br)cc3)ccc21`, > 50 µM (inactive).
The same measure, in the same setting: then `CC(C)c1ccccc1NC(=O)C1C2C=CC(C2)C1C(=O)O` (stereo unspecified), with > 50 µM (inactive).
`Cc1cc(C)c[n+](-c2nc3ccccc3nc2[N-]S(=O)(=O)c2ccc(Br)s2)c1`: the pIC50 was 5.43.
The same measure, in the same setting: then `Cc1c(C)c2cc(Cl)c(O)c(CN(C)C)c2oc1=O`, with 4.60; and `CC(C)OC(=O)c1c(N)n(CCCN2CCOCC2)c2nc3ccccc3nc12`, with 4.59.
